Assay results taken from patent US7253306B2, “Pharmaceutical drug candidates and methods for preparation thereof” (Neurochem (International) Limited, priority 2003, dated 2007).

Test: Partition coefficient water/toluene
Assay type: physicochemical

O=S1(=O)CCCO1 [1,3-propane sultone]
partition coefficient for water/toluene: 1.4
